The test system of the data set is thrombin. As to the kind of experiment: clotting time for thrombin-catalyzed conversion of fibrinogen to fibrin. It is filed as biochemical. As to conditions: thrombin 10 nM, 7 mer at 20 μM; thrombin alone 24 sec. How it is done:
Clotting time for the thrombin-catalyzed conversion of fibrinogen (2.0 mg/ml in selection buffer) to fibrin at 37° C. was measured using a precision coagulation timer apparatus (Becton-Dickinson, Cat. nos. 64015, 64019, 64020). Thrombin (10 nM) incubated with fibrinogen alone clotted in 40 sec, thrombin incubated with fibrinogen and P1 nuclease (Boehringer-Mannheim, Indianapolis, Ind.) clotted in 39 sec, thrombin incubated with fibrinogen and aptamer clone #5 (200 nM) clotted in 115 sec, and thrombin incubated with fibrinogen, clone #5 (200 nM) and P1 nuclease clotted in 40 sec. All incubations were carried out at 37° C. using reagents prewarmed to 37° C. Aptamer DNA or, when present, P1 nuclease, was added to the fibrinogen solution prior to addition of thrombin.
Inhibition of thrombin activity was studied using a consensus-related sequence 7 mer, 5' GGTTGGG 3' (SEQ ID NO: 15), and a control 7 mer with the same base composition but different sequence (5' GGGGGTT 3') (SEQ ID NO: 16). Clotting times were measured using the timer apparatus as above. The thrombin clotting time in this experiment was 24 sec using thrombin alone (10 nM), 26 sec with thrombin and the control sequence at 20 μM and 38 sec with thrombin plus the consensus sequence at 20 μM, indicating specificity for thrombin inhibition at the level of the 7 mer.

Here are results for two substances from US5582981A, “Method for identifying an oligonucleotide aptamer specific for a target” (priority 1994, dated 1996).

With “5' GGTTGGG 3' (chemistry not given here) [SEQ ID NO: 15]”, the thrombin clotting time was found to be 38 s. The result for “5' GGGGGTT 3' (chemistry not given here) [SEQ ID NO: 16]” reads 26 s.
